Assay results from US9738902B2, “Modified PYR/PYL receptors activated by ligands” (priority 2013, dated 2017).

Key:
Assay type in all cases: cell-based
PYR1 K59R Y120A N167C = target: T1, PYR1 K59R Y120A N167C (Arabidopsis thaliana, UniProt O49686, K59R/N167C/Y120A); test: Y2H Combinatorial Mutagenesis Screen I (HAB1, X-gal)
T1 construct: expressed in transfected cells; host or cells: S. cerevisiae Y190 two-hybrid reporter strain
From the text: (§1) This screening approach yielded mutants at ligand contacting residues that alter sensitivity to specific ligands. We reasoned that receptor sensitivity could be improved by systematically constructing combinations of the best mutant variants identified in the first round of screening. To test this, we constructed mutant combinations using the strongest mutations identified for mandipropamid, benzothiadiazole, benoxacor or fludioxonil sensitivity. The mutations selected for combinatorial mutagenesis are listed in bold type in Table 1; The mutant combinations were constructed using the QuickChange Lightning Multi Site-Directed PCR Mutagenesis kit (Agilent, USA) using pBD-PYR1^K59R template DNA and mutagenic primers, essentially as previously described (Mosquna et al., 2011). The mutant combinations were sequence validated, introduced into the pACT-HAB1 Y190 reporter strain and then tested for responsiveness to a range of compound concentrations (100, 50, 25, 10, 1, 0.2, 0.1 or 0 μM each test compound). These efforts yielded double mutant receptor variants with improved sensitivity for the 4 compound/receptor pairs examined (see entries labeled “Combinatorial Mutagenesis Screen I” in Table 1).

PYR1 K59R E94A Y120A = target: T2, PYR1 K59R E94A Y120A (Arabidopsis thaliana, UniProt O49686, E94A/K59R/Y120A); test: as above
T2 construct: expressed in transfected cells; host or cells: S. cerevisiae Y190 two-hybrid reporter strain
From the text: as §1

PYR1 K59R E94A N167C = target: T3, PYR1 K59R E94A N167C (Arabidopsis thaliana, UniProt O49686, E94A/K59R/N167C); test: as above
T3 construct: expressed in transfected cells; host or cells: S. cerevisiae Y190 two-hybrid reporter strain
From the text: as §1

PYR1 K59R Y120A E141Y = target: T4, PYR1 K59R Y120A E141Y (Arabidopsis thaliana, UniProt O49686, E141Y/K59R/Y120A); test: as above
T4 construct: expressed in transfected cells; host or cells: S. cerevisiae Y190 two-hybrid reporter strain
From the text: as §1

PYR1 K59R M158T = target: T5, PYR1 K59R M158T (Arabidopsis thaliana, UniProt O49686, K59R/M158T); test: Y2H Pocket Library Screen (HAB1, X-gal)
T5 construct: expressed in transfected cells; host or cells: S. cerevisiae Y190 two-hybrid reporter strain
Method: (§2) The set of 475 mutant plasmids were individually transformed into the Y190 yeast two hybrid reporter strain co-transformed with pACT-HAB1, as previously described (Park et al., 2009). The yeast strains generated were arrayed into 96-well plates yielding what we refer to as the “pocket library”. The pocket library strains were spotted onto agar plates containing selective synthetic dextrose (minus Leu & Trp) medium that was supplemented with a single test compound at 100 μM. The pocket library strains were separately tested for responsiveness to the following compounds: dichlobenil, benzothiadiazole, mandipropamid, fludioxonil, and benoxacor. After incubating test plates at 30° C. for two days, colonies were chloroform lysed and stained to reveal β-galactosidase expression levels, using previously described methods (Park et al., 2009). Mutants displaying responsiveness to the test compound, if present, were identified by virtue of X-gal staining and then subjected to subsequent optimization efforts. Using this approach we identified mutations that conferred detectable sensitivity to the compounds tested (see entries labeled “Pocket Library Screens” in Table 1).

PYR1 K59R E141Y = target: T6, PYR1 K59R E141Y (Arabidopsis thaliana, UniProt O49686, E141Y/K59R); test: Y2H Pocket Library Screen (HAB1, X-gal)
T6 construct: expressed in transfected cells; host or cells: S. cerevisiae Y190 two-hybrid reporter strain
T6 sequence (O49686 whole entry K59R/E141Y): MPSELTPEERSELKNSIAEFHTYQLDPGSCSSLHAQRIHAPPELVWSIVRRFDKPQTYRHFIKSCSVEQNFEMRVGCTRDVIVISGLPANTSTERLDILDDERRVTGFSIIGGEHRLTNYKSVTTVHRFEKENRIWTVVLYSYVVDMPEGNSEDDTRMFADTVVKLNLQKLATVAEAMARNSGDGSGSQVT
T6 sequence (Q9CAJ0 23-511, further chain): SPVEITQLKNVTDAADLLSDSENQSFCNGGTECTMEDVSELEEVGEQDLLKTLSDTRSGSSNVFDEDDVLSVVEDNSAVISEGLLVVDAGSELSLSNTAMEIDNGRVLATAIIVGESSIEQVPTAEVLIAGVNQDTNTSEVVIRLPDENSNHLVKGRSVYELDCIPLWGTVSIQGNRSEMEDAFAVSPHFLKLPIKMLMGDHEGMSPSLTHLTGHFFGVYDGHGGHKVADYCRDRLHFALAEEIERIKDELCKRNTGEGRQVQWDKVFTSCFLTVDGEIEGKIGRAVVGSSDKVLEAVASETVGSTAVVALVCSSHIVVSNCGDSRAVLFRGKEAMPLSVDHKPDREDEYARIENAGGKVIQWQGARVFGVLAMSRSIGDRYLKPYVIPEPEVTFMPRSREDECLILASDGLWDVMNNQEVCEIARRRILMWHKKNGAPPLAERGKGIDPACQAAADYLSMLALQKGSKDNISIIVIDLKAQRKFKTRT
Method: as §2

PYR1 K59R M158C = target: T7, PYR1 K59R M158C (Arabidopsis thaliana, UniProt O49686, K59R/M158C); test: Y2H Pocket Library Screen (HAB1, X-gal)
T7 construct: expressed in transfected cells; host or cells: S. cerevisiae Y190 two-hybrid reporter strain
Method: as §2

PYR1 K59R S92F = target: T8, PYR1 K59R S92F (Arabidopsis thaliana, UniProt O49686, K59R/S92F); test: Y2H Pocket Library Screen (HAB1, X-gal)
T8 construct: expressed in transfected cells; host or cells: S. cerevisiae Y190 yeast two-hybrid reporter strain
Method: as §2

PYR1 K59R L87P = target: T9, PYR1 K59R L87P (Arabidopsis thaliana, UniProt O49686, K59R/L87P); test: Y2H Pocket Library Screen (HAB1, X-gal)
T9 construct: expressed in transfected cells; host or cells: S. cerevisiae Y190 yeast two-hybrid reporter strain
Method: as §2

PYR1 K59R E94S = target: T10, PYR1 K59R E94S (Arabidopsis thaliana, UniProt O49686, E94S/K59R); test: Y2H Pocket Library Screen (HAB1, X-gal)
T10 construct: expressed in transfected cells; host or cells: S. cerevisiae Y190 yeast two-hybrid reporter strain
Method: as §2

PYR1 K59R L87F = target: T11, PYR1 K59R L87F (Arabidopsis thaliana, UniProt O49686, K59R/L87F); test: Y2H Pocket Library Screen (HAB1, X-gal)
T11 construct: expressed in transfected cells; host or cells: S. cerevisiae Y190 yeast two-hybrid reporter strain
Method: as §2

PYR1 K59R N167V = target: T12, PYR1 K59R N167V (Arabidopsis thaliana, UniProt O49686, K59R/N167V); test: Y2H Pocket Library Screen (HAB1, X-gal)
T12 construct: expressed in transfected cells; host or cells: S. cerevisiae Y190 two-hybrid reporter strain
Method: as §2

PYR1 K59R N167H = target: T13, PYR1 K59R N167H (Arabidopsis thaliana, UniProt O49686, K59R/N167H); test: Y2H Pocket Library Screen (HAB1, X-gal)
T13 construct: expressed in transfected cells; host or cells: S. cerevisiae Y190 two-hybrid reporter strain
Method: as §2

PYR1 K59R F159A = target: T14, PYR1 K59R F159A (Arabidopsis thaliana, UniProt O49686, F159A/K59R); test: Y2H Pocket Library Screen (HAB1, X-gal)
T14 construct: expressed in transfected cells; host or cells: S. cerevisiae Y190 two-hybrid reporter strain
Method: as §2

PYR1 K59R V81Y = target: T15, PYR1 K59R V81Y (Arabidopsis thaliana, UniProt O49686, K59R/V81Y); test: Y2H Pocket Library Screen (HAB1, X-gal)
T15 construct: expressed in transfected cells; host or cells: S. cerevisiae Y190 yeast two-hybrid reporter strain
T15 sequence (O49686 whole entry K59R/V81Y): as the sequence (O49686 whole entry K59R/E141Y) above, with V81Y, Y141E counted along it
T15 sequence (Q9CAJ0 23-511 partner): as the sequence (Q9CAJ0 23-511, further chain) above
Method: as §2

PYR1 K59R Y120G = target: T16, PYR1 K59R Y120G (Arabidopsis thaliana, UniProt O49686, K59R/Y120G); test: Y2H Pocket Library Screen (HAB1, X-gal)
T16 construct: expressed in transfected cells; host or cells: S. cerevisiae Y190 two-hybrid reporter strain
Method: as §2

PYR1 K59R M158V = target: T17, PYR1 K59R M158V (Arabidopsis thaliana, UniProt O49686, K59R/M158V); test: Y2H Pocket Library Screen (HAB1, X-gal)
T17 construct: expressed in transfected cells; host or cells: S. cerevisiae Y190 two-hybrid reporter strain
Method: as §2

PYR1 K59R F159V = target: T18, PYR1 K59R F159V (Arabidopsis thaliana, UniProt O49686, F159V/K59R); test: Y2H Pocket Library Screen (HAB1, X-gal)
T18 construct: expressed in transfected cells; host or cells: S. cerevisiae Y190
Method: as §2

PYR1 K59R T162W = target: T19, PYR1 K59R T162W (Arabidopsis thaliana, UniProt O49686, K59R/T162W); test: Y2H Pocket Library Screen (HAB1, X-gal)
T19 construct: expressed in transfected cells; host or cells: S. cerevisiae Y190
T19 sequence (O49686 whole entry K59R/T162W): as the sequence (O49686 whole entry K59R/E141Y) above, with Y141E, T162W counted along it
T19 sequence (Q9CAJ0 23-511, further chain): as the sequence (Q9CAJ0 23-511, further chain) above
Method: as §2

PYR1 K59R E94A = target: T20, PYR1 K59R E94A (Arabidopsis thaliana, UniProt O49686, E94A/K59R); test: Y2H Pocket Library Screen (HAB1, X-gal)
T20 construct: expressed in transfected cells; host or cells: S. cerevisiae Y190 yeast two-hybrid reporter strain
Method: as §2

PYR1 K59R E94D = target: T21, PYR1 K59R E94D (Arabidopsis thaliana, UniProt O49686, E94D/K59R); test: Y2H Pocket Library Screen (HAB1, X-gal)
T21 construct: expressed in transfected cells; host or cells: S. cerevisiae Y190 yeast two-hybrid reporter strain
T21 sequence (O49686 whole entry K59R/E94D): as the sequence (O49686 whole entry K59R/E141Y) above, with E94D, Y141E counted along it
T21 sequence (Q9CAJ0 23-511 partner): as the sequence (Q9CAJ0 23-511, further chain) above
Method: as §2

PYR1 K59R V81I = target: T22, PYR1 K59R V81I (Arabidopsis thaliana, UniProt O49686, K59R/V81I); test: Y2H Pocket Library Screen (HAB1, X-gal)
T22 construct: expressed in transfected cells; host or cells: S. cerevisiae Y190 yeast two-hybrid reporter strain
Method: as §2

PYR1 K59R V83L = target: T23, PYR1 K59R V83L (Arabidopsis thaliana, UniProt O49686, K59R/V83L); test: Y2H Pocket Library Screen (HAB1, X-gal)
T23 construct: expressed in transfected cells; host or cells: S. cerevisiae Y190 yeast two-hybrid reporter strain
Method: as §2

PYR1 K59R Y120A = target: T24, PYR1 K59R Y120A (Arabidopsis thaliana, UniProt O49686, K59R/Y120A); test: Y2H Pocket Library Screen (HAB1, X-gal)
T24 construct: expressed in transfected cells; host or cells: S. cerevisiae Y190 two-hybrid reporter strain
Method: as §2

PYR1 K59R A160C = target: T25, PYR1 K59R A160C (Arabidopsis thaliana, UniProt O49686, A160C/K59R); test: Y2H Pocket Library Screen (HAB1, X-gal)
T25 construct: expressed in transfected cells; host or cells: S. cerevisiae Y190
T25 sequence (O49686 whole entry K59R/A160C): as the sequence (O49686 whole entry K59R/E141Y) above, with Y141E, A160C counted along it
T25 sequence (Q9CAJ0 23-511 partner): as the sequence (Q9CAJ0 23-511, further chain) above
Method: as §2

PYR1 K59R V164K = target: T26, PYR1 K59R V164K (Arabidopsis thaliana, UniProt O49686, K59R/V164K); test: Y2H Pocket Library Screen (HAB1, X-gal)
T26 construct: expressed in transfected cells; host or cells: S. cerevisiae Y190
Method: as §2

PYR1 K59R Y120F = target: T27, PYR1 K59R Y120F (Arabidopsis thaliana, UniProt O49686, K59R/Y120F); test: Y2H Pocket Library Screen (HAB1, X-gal)
T27 construct: expressed in transfected cells; host or cells: S. cerevisiae Y190 two-hybrid reporter strain
Method: as §2

PYR1 K59R F108L = target: T28, PYR1 K59R F108L (Arabidopsis thaliana, UniProt O49686, F108L/K59R); test: Y2H Pocket Library Screen (HAB1, X-gal)
T28 construct: expressed in transfected cells; host or cells: S. cerevisiae Y190 yeast two-hybrid reporter strain
Method: as §2

PYR1 K59R Y120M = target: T29, PYR1 K59R Y120M (Arabidopsis thaliana, UniProt O49686, K59R/Y120M); test: Y2H Pocket Library Screen (HAB1, X-gal)
T29 construct: expressed in transfected cells; host or cells: S. cerevisiae Y190 two-hybrid reporter strain
T29 sequence (O49686 whole entry K59R/Y120M): as the sequence (O49686 whole entry K59R/E141Y) above, with Y120M, Y141E counted along it
T29 sequence (Q9CAJ0 23-511 partner): as the sequence (Q9CAJ0 23-511, further chain) above
Method: as §2

PYR1 K59R M158I = target: T30, PYR1 K59R M158I (Arabidopsis thaliana, UniProt O49686, K59R/M158I); test: Y2H Pocket Library Screen (HAB1, X-gal)
T30 construct: expressed in transfected cells; host or cells: S. cerevisiae Y190 two-hybrid reporter strain
T30 sequence (O49686 whole entry K59R/M158I): as the sequence (O49686 whole entry K59R/E141Y) above, with Y141E, M158I counted along it
T30 sequence (Q9CAJ0 23-511, further chain): as the sequence (Q9CAJ0 23-511, further chain) above
Method: as §2

PYR1 K59R N167C = target: T31, PYR1 K59R N167C (Arabidopsis thaliana, UniProt O49686, K59R/N167C); test: Y2H Pocket Library Screen (HAB1, X-gal)
T31 construct: expressed in transfected cells; host or cells: S. cerevisiae Y190 two-hybrid reporter strain
Method: as §2

PYR1 K59R F159T = target: T32, PYR1 K59R F159T (Arabidopsis thaliana, UniProt O49686, F159T/K59R); test: Y2H Pocket Library Screen (HAB1, X-gal)
T32 construct: expressed in transfected cells; host or cells: S. cerevisiae Y190
Method: as §2

Measured: Threshold

N#Cc1c[nH]cc1-c1cccc2c1OC(F)(F)O2 [Fludioxonil, fludioxonil]
1 µM: PYR1 K59R E94A
10 µM: PYR1 K59R Y120A N167C | PYR1 K59R E94A Y120A | PYR1 K59R E94A N167C | PYR1 K59R Y120A E141Y
100 µM: all other assays above
